Assay results: article PMC6384738, “Structure-Function Studies of Polymyxin B Lipononapeptides” (Molecules, 2019)
In brackets after ≈: the same amount, converted by molar mass. Where a SMILES comes first, the peptide text is derived from it. Bridges are numbered along the chain shown (N, C = ends). [ ]: non-standard residue; d: D form. The star is where a group is joined. Benzoyl(3-Ph) = O=C(c1cccc(-c2ccccc2)c1)*; dDab = NCC[C@@H](N)C(=O)O; hSer = N[C@@H](CCO)C(=O)O; Octanoyl = CCCCCCCC(=O)*; Dab = NCC[C@H](N)C(=O)O

How the values were obtained:
[1] = system: S. aureus ATCC 25923; experiment: microbe, parasite or virus in culture; conditions: for MIC S. aureus ATCC 25923: ATCC 25923, 18 h
Method in brief: (§1)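 Values are minimum inhibitory concentrations in mg/L, obtained by serial dilution of compound in broth with the bacterial strain. Polymyxin B, colistin, vancomycin and gentamicin were run alongside as reference antibacterials.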

[2] = system: K. pneumoniae BAA 2146; experiment: microbe, parasite or virus in culture; conditions: for MIC K. pneumoniae BAA 2146: BAA 2146, 18 h
Method in brief: as §1

[3] = system: P. aeruginosa ATTC 27853; experiment: microbe, parasite or virus in culture; conditions: for MIC P. aeruginosa ATTC 27853: ATTC 27853, 18 h
Method in brief: as §1

[4] = system: K. pneumoniae ATCC 700603; experiment: microbe, parasite or virus in culture; conditions: for MIC K. pneumoniae ATCC 700603: ATCC 700603, 18 h
Method in brief: as §1

[5] = system: K. pneumoniae ATCC 13833; experiment: microbe, parasite or virus in culture; conditions: for MIC K. pneumoniae ATCC 13833: ATCC 13833, 18 h
Method in brief: as §1

[6] = in vitro; conditions: human
Method in brief: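 HK-2 cells seeded 2000 cells/well in DMEM/F12 with 10% FBS, grown 24 h, then exposed to compounds (300 µM to 2.3 µM, 2-fold series; colistin/polymyxin B 1 mM to 7.8 µM) for 24 h at 37 °C. LDH in medium read at 450 nm after 30 min; cytotoxicity % relative to 1% Triton X-100 and untreated cells.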

[7] = system: ATCC reference strains (Escherichia coli, Klebsiella pneumoniae, A. baumannii, and P. aeruginosa)
Description: All compounds synthesised in this study were assessed for their minimum inhibitory concentrations (MIC, mg/L) by broth microdilution assay against five antibiotic-sensitive and resistant ATCC reference strains covering the Gram-negative ESKAPE pathogens (Escherichia coli, Klebsiella pneumoniae, A. baumannii, and P. aeruginosa) (Table 1, Table 2 and Table 3). Staphylococcus aureus was also included as a representative Gram-positive bacterial strain. […] Polymyxin B 1, colistin 2, vancomycin and gentamicin were used as positive inhibitor comparator compounds. Compounds were counter-screened against human proximal tubular epithelial cells (HK-2), using LDH release as a general indicator of cellular toxicity.

[8] = system: E. coli ATCC 25922; experiment: microbe, parasite or virus in culture; conditions: for MIC E. coli ATCC 25922: ATCC 25922, 18 h
Method in brief: as §1

[9] = system: A. baumannii ATCC 19606; experiment: microbe, parasite or virus in culture; conditions: for MIC A. baumannii ATCC 19606: ATCC 19606, 18 h
Method in brief: as §1

[10] = system: P. aeruginosa FADDI PA070; experiment: microbe, parasite or virus in culture; conditions: for MIC P. aeruginosa FADDI PA070: FADDI PA070, 18 h
Method in brief: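 Broth microdilution; read-out = minimum inhibitory concentration, mg/L. Comparators: polymyxin B, colistin, vancomycin, gentamicin.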

Compound | MIC S. aureus ATCC 25923 [1] [µg/mL] | MIC K. pneumoniae BAA 2146 [2] [µg/mL] | MIC P. aeruginosa ATTC 27853 [3] [µg/mL] | MIC K. pneumoniae ATCC 700603 [4] [µg/mL] | MIC K. pneumoniae ATCC 13833 [5] [µg/mL] | CC50 at 24 h [6] [µM] | MIC for most strains [7] [µg/mL] | MIC E. coli ATCC 25922 [8] [µg/mL] | MIC A. baumannii ATCC 19606 [9] [µg/mL] | MIC P. aeruginosa FADDI PA070 [10] [µg/mL] | fold more active than nonapeptide 8 ([7]; MIC comparison against most strains) | MIC ([1]; Staphylococcus aureus, ATCC25923, 18 h, read-out: MIC S. aureus ATCC 25923) [µg/mL] | MIC ([8]; Escherichia coli, ATCC25922, 18 h, read-out: MIC E. coli ATCC 25922) [µg/mL] | MIC ([2]; Klebsiella pneumoniae, BAA2146, 18 h, read-out: MIC K. pneumoniae BAA 2146) [µg/mL] | MIC ([9]; Acinetobacter baumannii, ATCC19606, 18 h, read-out: MIC A. baumannii ATCC 19606) [µg/mL] | MIC ([3]; Pseudomonas aeruginosa, ATTC27853, 18 h, read-out: MIC P. aeruginosa ATTC 27853) [µg/mL] | MIC ([4]; Klebsiella pneumoniae, ATCC700603, 18 h, read-out: MIC K. pneumoniae ATCC 700603) [µg/mL] | MIC ([10]; Pseudomonas aeruginosa, FADDIPA070, 18 h, read-out: MIC P. aeruginosa FADDI PA070) [µg/mL] | MIC ([5]; Klebsiella pneumoniae, ATCC13833, 18 h, read-out: MIC K. pneumoniae ATCC 13833) [µg/mL]
CCCCCCCC(=O)N[C@H](C(=O)N[C@@H](CCN)C(=O)N[C@H]1CCNC(=O)[C@H]([C@@H](C)O)NC(=O)[C@H](CCN)NC(=O)[C@H](CCN)NC(=O)[C@H](CC(C)C)NC(=O)[C@@H](Cc2ccccc2)NC(=O)[C@H](CCN)NC1=O)[C@@H](C)O [Compound 8] (Octanoyl-T[Dab][Dab][Dab][dF]L[Dab][Dab]T; lactam 3-C) | >32 | 2 (≈ 1.84 µM) | 0.5 (≈ 0.459 µM) | 2 (≈ 1.84 µM) | 1 (≈ 0.918 µM) | 209 | 1 to 2 |  |  |  |  |  |  |  |  |  |  |  | 
CC(C)C[C@@H]1NC(=O)[C@@H](Cc2ccccc2)NC(=O)[C@H](CCN)NC(=O)[C@@H](NC(=O)[C@@H](CCN)NC(=O)[C@@H](NC(=O)c2cccc(-c3ccccc3)c2)[C@@H](C)O)CCNC(=O)[C@H]([C@@H](C)O)NC(=O)[C@H](CCN)NC(=O)[C@H](CCN)NC1=O [Compound 27] ({Benzoyl(3-Ph)}-T[dDab][Dab][Dab][dF]L[Dab][Dab]T; lactam 3-C) | >32 | 8 (≈ 7 µM) | 2 (≈ 1.75 µM) | 16 (≈ 14 µM) | 32 (≈ 28 µM) | > 300 |  | 4 (≈ 3.5 µM) | >32 | 8 (≈ 7 µM) |  |  |  |  |  |  |  |  | 
CCCCCCCC(=O)N[C@@H](CCC(=O)O)C(=O)N[C@H](CCN)C(=O)N[C@H]1CCNC(=O)[C@H]([C@@H](C)O)NC(=O)[C@H](CCN)NC(=O)[C@H](CCN)NC(=O)[C@H](CC(C)C)NC(=O)[C@@H](Cc2ccccc2)NC(=O)[C@H](CCN)NC1=O [Compound 32] (Octanoyl-E[dDab][Dab][Dab][dF]L[Dab][Dab]T; lactam 3-C) | >32 | >32 | 4 (≈ 3.58 µM) | 32 (≈ 28.6 µM) | >32 | > 300 |  | >32 | >32 | >32 |  |  |  |  |  |  |  |  | 
CCCCCCCC(=O)N[C@@H](CCO)C(=O)N[C@H](CCN)C(=O)N[C@H]1CCNC(=O)[C@H]([C@@H](C)O)NC(=O)[C@H](CCN)NC(=O)[C@H](CCN)NC(=O)[C@H](CC(C)C)NC(=O)[C@@H](Cc2ccccc2)NC(=O)[C@H](CCN)NC1=O [Compound 31] (Octanoyl-[hSer][dDab][Dab][Dab][dF]L[Dab][Dab]T; lactam 3-C) | >32 | 8 (≈ 7.34 µM) | 2 (≈ 1.84 µM) | 8 (≈ 7.34 µM) | >32 | 181 |  | 16 (≈ 14.7 µM) | >32 | 8 (≈ 7.34 µM) |  |  |  |  |  |  |  |  | 
CCCCCCCC(=O)N[C@@H](CCN)C(=O)N[C@H](C(=O)N[C@@H](CCN)C(=O)N[C@H]1CCNC(=O)[C@H]([C@@H](C)O)NC(=O)[C@H](CCN)NC(=O)[C@H](CCN)NC(=O)[C@H](CC(C)C)NC(=O)[C@@H](Cc2ccccc2)NC(=O)[C@H](CCN)NC1=O)[C@@H](C)O [PmxB3, polymyxin B3, reference compound] (Octanoyl-[Dab]T[Dab][Dab][Dab][dF]L[Dab][Dab]T; lactam 4-C) | >32 | 0.5 (≈ 0.42 µM) | 0.5 (≈ 0.42 µM) | 1 (≈ 0.841 µM) | 2 (≈ 1.68 µM) | > 300 |  |  |  |  | 2- to 4 fold |  |  |  |  |  |  |  | 
CCCCCCCC(=O)N[C@H](C(=O)N[C@H](CCN)C(=O)N[C@H]1CCNC(=O)[C@H]([C@@H](C)O)NC(=O)[C@H](CCN)NC(=O)[C@H](CCN)NC(=O)[C@H](CC(C)C)NC(=O)[C@@H](Cc2ccccc2)NC(=O)[C@H](CCN)NC1=O)[C@@H](C)O [Compound 21] (Octanoyl-T[dDab][Dab][Dab][dF]L[Dab][Dab]T; lactam 3-C) | >32 | 1 (≈ 0.918 µM) | 2 (≈ 1.84 µM) | 1 (≈ 0.918 µM) | 4 (≈ 3.67 µM) | 289 |  | 0.5 (≈ 0.459 µM) | 8 (≈ 7.34 µM) | 8 (≈ 7.34 µM) |  |  |  |  |  |  |  |  | 
CCCCCCCC(=O)N[C@@H](Cc1ccc(O)cc1)C(=O)N[C@H](CCN)C(=O)N[C@H]1CCNC(=O)[C@H]([C@@H](C)O)NC(=O)[C@H](CCN)NC(=O)[C@H](CCN)NC(=O)[C@H](CC(C)C)NC(=O)[C@@H](Cc2ccccc2)NC(=O)[C@H](CCN)NC1=O [Compound 29] (Octanoyl-Y[dDab][Dab][Dab][dF]L[Dab][Dab]T; lactam 3-C) | >32 | >32 | 4 (≈ 3.47 µM) | 16 (≈ 13.9 µM) | >32 | > 300 |  | 16 (≈ 13.9 µM) | >32 | 8 (≈ 6.95 µM) |  |  |  |  |  |  |  |  | 
CCCCCCCC(=O)N[C@@H](CC(N)=O)C(=O)N[C@H](CCN)C(=O)N[C@H]1CCNC(=O)[C@H]([C@@H](C)O)NC(=O)[C@H](CCN)NC(=O)[C@H](CCN)NC(=O)[C@H](CC(C)C)NC(=O)[C@@H](Cc2ccccc2)NC(=O)[C@H](CCN)NC1=O [Compound 28] (Octanoyl-N[dDab][Dab][Dab][dF]L[Dab][Dab]T; lactam 3-C) | >32 | >32 | 4 (≈ 3.63 µM) | >32 | >32 | > 300 |  | 32 (≈ 29 µM) | >32 | 8 (≈ 7.26 µM) |  |  |  |  |  |  |  |  | 
CCCCCCCC(=O)N[C@@H](CO)C(=O)N[C@H](CCN)C(=O)N[C@H]1CCNC(=O)[C@H]([C@@H](C)O)NC(=O)[C@H](CCN)NC(=O)[C@H](CCN)NC(=O)[C@H](CC(C)C)NC(=O)[C@@H](Cc2ccccc2)NC(=O)[C@H](CCN)NC1=O [Compound 30] (Octanoyl-S[dDab][Dab][Dab][dF]L[Dab][Dab]T; lactam 3-C) | >32 | 8 (≈ 7.44 µM) | 1 (≈ 0.93 µM) | 4 (≈ 3.72 µM) | >32 | > 300 |  | 8 (≈ 7.44 µM) | >32 | 16 (≈ 14.9 µM) |  |  |  |  |  |  |  |  | 
CN[C@H](CC(C)C)C(=O)N[C@H]1C(=O)N[C@@H](CC(N)=O)C(=O)N[C@H]2C(=O)N[C@H]3C(=O)N[C@H](C(=O)N[C@H](C(=O)O)c4cc(O)cc(O)c4-c4cc3ccc4O)[C@H](O)c3ccc(c(Cl)c3)Oc3cc2cc(c3O[C@@H]2O[C@H](CO)[C@@H](O)[C@H](O)[C@H]2O[C@H]2C[C@](C)(N)[C@H](O)[C@H](C)O2)Oc2ccc(cc2Cl)[C@H]1O [Vanc, vancomycin, reference compound] |  |  |  |  |  | > 300 |  |  |  |  |  | 2 (≈ 1.38 µM) | > 32 | > 32 | > 32 | > 32 | > 32 | > 32 | > 32
